# From patent US20250154152A1, “INHIBITORS OF NAEGLERIA FOWLERI” (Wisconsin Alumni Research Foundation, priority 2023, published 2025)
# System: N. fowleri strain Nf69 (ATCC 30215) trophozoites
# Assay: Determination of EC50 values against Naegleria fowleri (growth inhibition, CellTiter Glo, 48 h)
# Assay type: cell-based
# Details: ATCC30215, N. fowleri Nf69 trophozoites, 48 h culture, 37° C., CellTiter Glo luminescence, read-out: EC50 uM against N. fowleri
# Procedure: N. fowleri strain Nf69 (ATCC 30215) trophozoites were cultured axenically. Amoeba were seeded at […] in 100 μL of the indicated medium in white TC-treated 96-well plates (Thermo Scientific Nunc Microwell 136101). Cells were seeded into Nelson's Complete Media (NCM, 0.17% liver infusion broth (BD Difco, Franklin Lakes, NJ), 0.17% glucose, 0.012% sodium chloride, 0.0136% potassium phosphate monobasic, 0.0142% sodium phosphate dibasic, 0.0004% calcium chloride, 0.0002% magnesium sulfate, 10% heat-inactivated fetal bovine serum (FBS), 1% penicillin-streptomycin) at 37° C. in 96-well tissue culture plates. Vehicle or compound at concentrations initially ranging from 20 to 0.375 μM were added to cells, followed by culture for 48 h (37° C., 5% CO2). Plates were equilibrated to rt for 15 min and CellTiter Glo reagent was added followed by orbital shaking for 2 min. After an additional incubation (rt, 10 min), luminescence was scored on a BioTek Synergy H1 microplate reader. Luminescence values were used to calculate percent cell growth inhibition (based on controls) for each concentration of compound tested. Averages of triplicates were calculated and fit to dose-response curves for the determination of EC50 values, using Prism 9.0 (GraphPad Software, San Diego, CA). […] Other controls included media alone, cells and media, and vehicle and media. For very potent compounds, concentration of reagent in the dose-response assays were reduced to provide an appropriate range for EC50 value resolution.
# Compounds of the present technology were tested for growth inhibition of N. fowleri per General Procedure 13, above.
row,SMILES,EC50 [µM]
1,"COc1cc2nc3n(c(=O)c2cc1Cl)CC[C@@H]1[C@H]3CCCN1C (racemic) [cis-5gg, (±)-(4aR,13bR)-10-chloro-11-methoxy-4-methyl-1,2,3,4,4a,5,6,13b-octahydro-8H-[1,6]naphthyridino[5,6-b]quinazolin-8-one]",0.1 to 1
2,"Cc1ccc2nc3n(c(=O)c2c1)CC[C@@H]1[C@H]3CCCN1C (racemic) [cis-5h, (±)-(4aR,13bR)-4,10-dimethyl-1,2,3,4,4a,5,6,13b-octahydro-8H-[1,6]naphthyridino[5,6-b]quinazolin-8-one]",1 to 10
3,"CN1CC[C@H]2c3nc4ccc(Cl)cc4c(=O)n3CC[C@H]21 (racemic) [cis-5hh, (±)-(3aR,12bR)-9-chloro-3-methyl-2,3,3a,4,5,12b-hexahydropyrrolo[3′,2′:3,4]pyrido[2,1-b]quinazolin-7(1H)-one]",> 10
4,"CN1CCC[C@H]2c3nc4ccc(C#N)cc4c(=O)n3CC[C@H]21 (racemic) [cis-5i, (±)-(4aR,13bR)-4-methyl-8-oxo-2,3,4,4a,5,6,8,13b-octahydro-1H-[1,6]naphthyridino[5,6-b]quinazoline-10-carbonitrile]",1 to 10
5,"CN1CCC[C@H]2c3nc4ccc(C(F)(F)F)cc4c(=O)n3CC[C@H]21 (racemic) [cis-5j, (±)-(4aR,13bR)-4-methyl-10-(trifluoromethyl)-1,2,3,4,4a,5,6,13b-octahydro-8H-[1,6]naphthyridino[5,6-b]quinazolin-8-one]",0.1 to 1
6,"CN1CCC[C@H]2c3nc4cc(Cl)ccc4c(=O)n3CC[C@H]21 (racemic) [cis-5k, (±)-(4aR,13bR)-11-chloro-4-methyl-1,2,3,4,4a,5,6,13b-octahydro-8H-[1,6]naphthyridino[5,6-b]quinazolin-8-one]",> 10
7,"CN1CCC[C@H]2c3nc4cc(Br)ccc4c(=O)n3CC[C@H]21 (racemic) [cis-5l, (±)-(4aR,13bR)-11-bromo-4-methyl-1,2,3,4,4a,5,6,13b-octahydro-8H-[1,6]naphthyridino[5,6-b]quinazolin-8-one]",1 to 10
8,"CN1CCC[C@H]2c3nc4cc(F)ccc4c(=O)n3CC[C@H]21 (racemic) [cis-5m, (±)-(4aR,13bR)-11-fluoro-4-methyl-1,2,3,4,4a,5,6,13b-octahydro-8H-[1,6]naphthyridino[5,6-b]quinazolin-8-one]",> 10
9,"CN1CCC[C@H]2c3nc4cc(C(F)(F)F)ccc4c(=O)n3CC[C@H]21 (racemic) [cis-5n, (±)-(4aR,13bR)-4-methyl-11-(trifluoromethyl)-1,2,3,4,4a,5,6,13b-octahydro-8H-[1,6]naphthyridino[5,6-b]quinazolin-8-one]",1 to 10
10,"CN1CCC[C@H]2c3nc4cnccc4c(=O)n3CC[C@H]21 (racemic) [cis-5p, (±)-(4aR,13bR)-4-methyl-1,2,3,4,4a,5,6,13b-octahydro-8H-pyrido[3′,4′:4,5]pyrimido[2,1-f][1,6]naphthyridin-8-one]",> 10
11,"CN1CCC[C@H]2c3nc4cc(Cl)c(Cl)cc4c(=O)n3CC[C@H]21 (racemic) [cis-5q, (±)-(4aR,13bR)-10,11-dichloro-4-methyl-1,2,3,4,4a,5,6,13b-octahydro-8H-[1,6]naphthyridino[5,6-b]quinazolin-8-one]",0.1 to 1
12,"COc1cc2nc3n(c(=O)c2cc1OC)CC[C@@H]1[C@H]3CCCN1C (racemic) [cis-5r, (±)-(4aR,13bR)-10,11-dimethoxy-4-methyl-1,2,3,4,4a,5,6,13b-octahydro-8H-[1,6]naphthyridino[5,6-b]quinazolin-8-one]",> 10
13,"CN1CCC[C@H]2c3nc4cc(Cl)c(C(F)(F)F)cc4c(=O)n3CC[C@H]21 (racemic) [cis-5s, (±)-(4aR,13bR)-11-chloro-4-methyl-10-(trifluoromethyl)-1,2,3,4,4a,5,6,13b-octahydro-8H-[1,6]naphthyridino[5,6-b]quinazolin-8-one]",0.1 to 1
14,"COc1cc(Cl)cc2c(=O)n3c(nc12)[C@@H]1CCCN(C)[C@@H]1CC3 (racemic) [cis-5t, (±)-(4aR,13bR)-10-chloro-12-methoxy-4-methyl-1,2,3,4,4a,5,6,13b-octahydro-8H-[1,6]naphthyridino[5,6-b]quinazolin-8-one]",> 10
15,"CN1CCO[C@H]2c3nc4ccccc4c(=O)n3CC[C@H]21 (racemic) [cis-5v, (±)-(4aR,13bR)-4-methyl-3,4,4a,5,6,13b-hexahydro-[1,4]oxazino[2′,3′:3,4]pyrido[2,1-b]quinazolin-8(2H)-one]",> 10
16,"CN1CCO[C@H]2c3nc4ccc(Cl)cc4c(=O)n3CC[C@H]21 (racemic) [cis-5w, (±)-(4aR,13bR)-10-chloro-4-methyl-3,4,4a,5,6,13b-hexahydro-[1,4]oxazino[2′,3′:3,4]pyrido[2,1-b]quinazolin-8(2H)-one]",> 10
17,"CN1CCO[C@H]2c3nc4ccc(C(F)(F)F)cc4c(=O)n3CC[C@H]21 (racemic) [cis-5x, (±)-(4aR,13bR)-4-methyl-10-(trifluoromethyl)-3,4,4a,5,6,13b-hexahydro-[1,4]oxazino[2′,3′:3,4]pyrido[2,1-b]quinazolin-8(2H)-one]",> 10
18,"CN1CCN(C)[C@H]2c3nc4ccccc4c(=O)n3CC[C@H]21 (racemic) [cis-5y, (±)-(4aR,13bR)-1,4-dimethyl-1,2,3,4,4a,5,6,13b-octahydro-8H-pyrazino[2′,3′:3,4]pyrido[2,1-b]quinazolin-8-one]",> 10
19,"CCN1CCC[C@H]2c3nc4ccccc4c(=O)n3CC[C@H]21 (racemic) [cis-5z, (±)-(4aR,13bR)-4-ethyl-1,2,3,4,4a,5,6,13b-octahydro-8H-[1,6]naphthyridino[5,6-b]quinazolin-8-one]",> 10
20,Cc1ccc(-c2ccc3nc4n(c(=O)c3c2)CC[C@@H]2[C@H]4CCCN2C)cn1 (racemic) [cis-9a],> 10
21,"CN1CCC[C@H]2c3nc4cc(-c5ccccc5)c(Cl)cc4c(=O)n3CC[C@H]21 (racemic) [cis-9b, (±)-(4aR,13bR)-10-chloro-4-methyl-11-phenyl-1,2,3,4,4a,5,6,13b-octahydro-8H-[1,6]naphthyridino[5,6-b]quinazolin-8-one]",1 to 10
22,"COc1ccc2c(=O)n3c(nc2c1)[C@@H]1CCCN(C)[C@@H]1CC3 (racemic) [cis-50, (±)-(4aR,13bR)-11-methoxy-4-methyl-1,2,3,4,4a,5,6,13b-octahydro-8H-[1,6]naphthyridino[5,6-b]quinazolin-8-one]",1 to 10
23,"CN1CCC[C@@H]2c3nc4ccccc4c(=O)n3CC[C@H]21 (racemic) [trans-5a, (±)-(4aR,13bS)-4-methyl-1,2,3,4,4a,5,6,13b-octahydro-8H-[1,6]naphthyridino[5,6-b]quinazolin-8-one]",> 10
24,"O=c1c2ccccc2nc2n1CC[C@@H]1[C@@H]2CCCN1Cc1ccccc1 (racemic) [trans-5aa, (±)-(4aR,13bS)-4-benzyl-1,2,3,4,4a,5,6,13b-octahydro-8H-[1,6]naphthyridino[5,6-b]quinazolin-8-one]",> 10
25,"Cc1cccc2nc3n(c(=O)c12)CC[C@@H]1[C@@H]3CCCN1C (racemic) [trans-5b, (±)-(4aR,13bS)-4,9-dimethyl-1,2,3,4,4a,5,6,13b-octahydro-8H-[1,6]naphthyridino[5,6-b]quinazolin-8-one]",> 10
26,"CN1CCC[C@@H]2c3nc4cccc(Cl)c4c(=O)n3CC[C@H]21 (racemic) [trans-5c, (±)-(4aR,13bS)-9-chloro-4-methyl-1,2,3,4,4a,5,6,13b-octahydro-8H-[1,6]naphthyridino[5,6-b]quinazolin-8-one]",> 10
